According to PubChem BioAssay (NCI):
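Grown in 96-well plates, cells were treated for 48 hours with each compound at five concentrations. Insufficient inhibition: endpoint recorded as highest concentration tested. At the TGI there is no net growth.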

Legend:
Assay in all cases: NCI-60 cell line screen, 48 h
A549 NSCLC = system: A549 NSCLC
NCI-H460 lung = system: NCI-H460 lung
M14 melanoma = system: M14 melanoma
HCT-15 colon = system: HCT-15 colon
UACC-62 melanoma = system: UACC-62 melanoma
ACHN renal = system: ACHN renal
U251 CNS = system: U251 CNS
KM12 colon = system: KM12 colon
EKVX NSCLC = system: EKVX NSCLC
SNB-75 CNS = system: SNB-75 CNS
NCI-H522 lung = system: NCI-H522 lung
CCRF-CEM leukemia = system: CCRF-CEM leukemia
SR leukemia = system: SR leukemia
MCF7 breast = system: MCF7 breast
PC-3 prostate = system: PC-3 prostate
MDA-N = system: MDA-N
NCI/ADR-RES ovarian = system: NCI/ADR-RES ovarian
T-47D breast = system: T-47D breast

Structure (SMILES) | TGI (A549 NSCLC) [µM] | TGI (NCI-H460 lung) [µM] | TGI (M14 melanoma) [µM] | TGI (HCT-15 colon) [µM] | TGI (UACC-62 melanoma) [µM] | TGI (ACHN renal) [µM] | TGI (U251 CNS) [µM] | TGI (KM12 colon) [µM] | TGI (EKVX NSCLC) [µM] | TGI (SNB-75 CNS) [µM] | TGI (NCI-H522 lung) [µM] | TGI (CCRF-CEM leukemia) [µM] | TGI (SR leukemia) [µM] | TGI (MCF7 breast) [µM] | TGI (PC-3 prostate) [µM] | TGI (MDA-N) [µM] | TGI (NCI/ADR-RES ovarian) [µM] | TGI (T-47D breast) [µM]
COc1cc2c(cc1OC)C(C(CO)CO)N(CC(O)CCl)CC2 (centres undefined) | > 100 | > 100 | > 100 | > 100 | > 100 | > 100 | > 100 | > 100 | > 100 | > 100 | > 100 | > 100 |  |  |  |  |  | 
CC[C@H](O)[C@H](C)C=C1SCCCS1 | > 100 |  | > 100 | > 100 | > 100 | > 100 | > 100 | > 100 | > 100 | > 100 | > 100 | > 100 | > 100 | > 100 | > 100 | > 100 | > 100 | 
O=c1[nH]c(=O)n(C2OC(COP(=O)(O)OP(=O)(O)OC3OC(CO)C(O)C(O)C3O)C(O)C2O)cc1F (centres undefined) | 8.56 | 0.429 | > 50.1 | 11.5 | 3.16 | 7.18 | > 100 | 10.7 | > 100 | > 100 | 7.75 | > 100 | > 21.6 |  |  |  |  | 
CN(C)c1ccc(C(=C(c2ccc(N(C)C)cc2)c2ccc(N(C)C)cc2)c2ccc(N(C)C)cc2)cc1 | 31.4 | 32.3 | 22 | 32.7 | 36.1 | 24.6 | 28.1 | 47.8 | 34.4 | 27.8 | 1.12 | 50.4 | 30.8 |  |  |  |  | 
NC(CCCC(N)P(=O)(O)c1ccccc1)P(=O)(O)c1ccccc1 (centres undefined) | > 261 | > 261 | > 261 | > 261 | > 261 | > 261 | > 261 | > 261 | > 261 | > 261 | > 261 | > 261 | > 261 |  |  |  |  | 
Cc1ccc(S(=O)(=O)N/N=C(\c2nc3ccc(Cl)cc3[nH]c2=O)C(O)c2cccc([N+](=O)[O-])c2)cc1 (centres undefined) | > 100 | > 100 | > 100 | > 100 | > 100 | > 100 | > 100 | > 100 | > 100 | > 100 | > 100 | > 100 | > 100 |  |  |  |  | 
N#CC1=C(N)n2c(s/c(=C\c3ccc(Cl)cc3)c2=O)=C(c2nc3ccccc3[nH]2)C1c1ccc(Cl)cc1 (centres undefined) | 10.9 | 8.03 | 11.5 | 4.2 | 2.92 | 5.26 | 2.89 | 3.06 | 3.52 | 17.8 | 3.68 | 4.23 | 5.85 |  |  |  |  | 
Cc1ccc(NC(=O)C2C(=O)N(c3ccc(C)cc3)C(=O)/C2=N\NC(N)=S)cc1 (centres undefined) |  | > 100 | > 100 | > 100 | > 100 | > 100 | > 100 | > 100 | > 100 | > 100 | > 100 |  |  |  |  |  |  | 
C[n+]1c(-c2ccc(/C=N/NC(=N)N/N=C/c3ccc(-c4cn5cc(Cl)ccc5[n+]4C)cc3)cc2)cn2cc(Cl)ccc21 | > 100 | > 100 | > 100 | > 100 |  | > 100 | > 100 | > 100 | > 100 | > 100 | > 100 | > 100 | > 100 | > 100 | > 100 |  | > 100 | > 100
CN(C)CC(C)(C)/C(=N\Nc1ccccc1)c1ccccc1 | > 100 | > 100 | 66.5 | 53.8 | 40.8 | 48.5 | > 100 | > 100 | > 100 | > 100 | > 100 | > 100 |  |  |  |  |  | 
COc1cc2c(c(OC)c1OC)-c1ccc(SC)c(=O)cc1[C@@H](NCc1ccc(C#N)cc1)CC2 | 28.6 |  |  | 0.0463 |  | > 100 | 0.00787 |  | > 100 | > 100 | 0.0081 |  | 18.5 |  |  |  |  | 
CCOC(=O)C1(C/C=C(/C)Cl)CCCC1=O (centres undefined) | > 100 | > 100 | > 100 | > 100 | > 100 | > 100 | > 100 | > 100 | > 100 | > 100 | > 100 | > 100 | 45.7 |  |  |  |  | 
O=C(/N=C/c1c(O)c2ccccc2oc1=O)Nc1ccccc1 | > 100 | > 100 | > 100 | > 100 | > 100 | > 100 | > 100 | > 100 | > 100 | 83.5 | > 100 | > 100 | > 100 |  |  |  |  | 
CC(C)(C)N=NNc1cn(C2OC(CO)C(O)C2O)c(=O)[nH]c1=O (centres undefined) | > 100 | > 100 | > 100 | > 100 | > 100 | > 100 |  | > 100 | > 100 | > 100 | > 100 | 95.4 | 50.8 |  |  |  |  | 
Cc1cccc2c(=O)c([Se]c3coc4c(C)cccc4c3=O)coc12 | 23.9 | 21.3 | 30.3 | 39.2 | 33.1 | 38.3 | 23.8 | 26.8 | 33.3 | 31.3 | > 100 | > 100 | 79 |  |  |  |  | 
Cc1nc(Nc2ccc(Cl)cc2)sc1C(=O)NNc1ccc([N+](=O)[O-])cc1[N+](=O)[O-] | 34.2 | 34.7 | 45.3 |  | 28.6 | 40.9 | 29.5 | 33.9 | 32.6 | 32.5 | 29.6 | 52.3 |  |  |  |  |  | 
COc1ccc(Nc2nc3ccc(C(F)(F)F)cc3nc2-c2ccccc2)cc1OC | > 100 | 37.1 | > 100 | > 100 | > 100 | > 100 | > 100 | > 100 | 80.3 | > 100 | 75.3 | > 100 | > 100 |  |  |  |  | 
O=C1c2ccc(O)cc2C(=O)c2ccc(O)cc21 | > 100 | > 100 | > 100 | > 100 | > 100 | > 100 | > 100 | > 100 | > 100 | 81.5 | > 100 | > 100 |  |  |  |  |  | 
CCOC(=O)c1cc(-c2cc(OC)c(OC)c([N+](=O)[O-])c2)c([N+](=O)[O-])n1C | > 10 | > 10 | > 10 | > 10 | > 10 | > 10 | > 10 | > 10 | > 10 | > 10 | > 10 | > 10 | > 10 |  |  |  | > 10 | 
CCc1cc(Cc2cc(Cl)c(NC(=O)C(=O)C3NC(=O)NC3=O)c(CC)c2)cc(Cl)c1NC(=O)C(=O)C1NC(=O)NC1=O (centres undefined) | > 100 | > 100 | > 100 | 35.6 | > 100 | > 100 | 40.1 | > 100 | > 100 | 90.7 |  | > 100 | > 100 |  |  |  |  | 
CC(C)=CC(=O)C/C(=N\NC(N)=S)C(=O)Nc1ccc(Cl)cc1 | > 100 | > 100 | > 100 | > 100 | > 100 | > 100 | > 100 | > 100 | > 100 | > 100 |  | > 100 |  |  |  |  |  | 
O=C1Nc2ccccc2C12CCNC2Cc1ccccc1 (centres undefined) | > 100 | > 100 | > 100 | > 100 | > 100 | > 100 | > 100 | > 100 | > 100 | > 100 |  | > 100 |  |  |  |  |  | 
O=C(c1ccc(Cl)cc1)c1ccc(OCCCOc2ccc(C(=O)c3ccc(Cl)cc3)cc2)cc1 | > 100 | > 100 | > 100 | > 100 | > 100 | > 100 | > 100 | > 100 | > 100 | > 100 | > 100 | > 100 | > 100 |  |  |  |  | 
Cc1c(Cl)c2ccccc2n1S(=O)(=O)c1ccccc1 | > 100 | > 100 | > 100 | > 100 | > 100 | > 100 | > 100 | > 100 |  | 58 | 67.1 | > 100 | > 100 |  |  |  |  | 
COCCCNC(=O)C1C(=O)N(CCCOC)C(=O)/C1=N\N (centres undefined) | > 100 | > 100 | > 100 | > 100 | > 100 | > 100 | > 100 | > 100 | > 100 | > 100 | > 100 | > 100 |  |  |  |  |  | 
COc1ccc(-c2cc(=O)c3cc4c(cc3[nH]2)OCO4)cc1OC | > 100 | > 100 | > 100 | > 100 | > 100 | > 100 | > 100 | > 100 | > 100 | > 100 | > 100 | > 100 | > 100 |  |  |  |  | 
